Results reported in PubChem BioAssay AID256 (DTP/NCI, 2004).
Values joined by “and” are separate entries in the source; they are usually repeats but may differ in a detail not shown here. Equal entries are not always repeated. Inconclusive results and toxic doses are left out. Rule for the calls: active = survival T/C of 150% or more; inactive = T/C below 125% in these data.

System: CD2F1 mice, L1210 leukemia ip, survival T/C
Test: NCI In Vivo Anticancer Drug Screen. Data for tumor model L1210 Leukemia (intraperitoneal) in CD2F1 (CDF1) mice
Details: higher = longer survival
In short: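 In this screen, transplantable tumors were grown in mice given either the compound or its vehicle. Results were expressed as the treated measurement relative to the control measurement.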

[1] = endpoint: mean survival time, dose: 100.0 mg/kg/injection, schedule: Q01DX001 (ip), vehicle: saline with Tween-80
[2] = endpoint: mean survival time, dose: 200.0 mg/kg/injection, schedule: Q01DX001 (ip), vehicle: saline with Tween-80
[3] = endpoint: mean survival time, dose: 400.0 mg/kg/injection, schedule: Q01DX001 (ip), vehicle: saline with Tween-80
[4] = endpoint: mean survival time, dose: 100.0 mg/kg/injection, schedule: Q04DX003 (ip), vehicle: saline with Tween-80
[5] = endpoint: mean survival time, dose: 200.0 mg/kg/injection, schedule: Q04DX003 (ip), vehicle: saline with Tween-80

Measured: T/C

Cc1nc(N)nc(N)c1-c1ccc(Cl)c(Cl)c1
inactive: endpoint: mean survival time, dose: 1.0 mg/kg/injection, schedule: Q01DX009 (ip), vehicle: Klucel (hydroxypropylcellulose) (HPC) 106 % of control | endpoint: mean survival time, dose: 1.0 mg/kg/injection, schedule: Q01DX009 (ip), vehicle: saline with Tween-80 107 % of control | endpoint: mean survival time, dose: 1.0 mg/kg/injection, schedule: Q02DX005 (ip), vehicle: saline 115 % of control | endpoint: mean survival time, dose: 1.25 mg/kg/injection, schedule: Q01DX005 (ip), vehicle: distilled water + Tween-80 95 % of control | endpoint: mean survival time, dose: 1.25 mg/kg/injection, schedule: Q01DX005 (ip), vehicle: water 104 % of control | endpoint: mean survival time, dose: 1.3 mg/kg/injection, schedule: Q01DX009 (sc), vehicle: other 123 % of control | endpoint: mean survival time, dose: 2.0 mg/kg/injection, schedule: Q01DX009 (ip), vehicle: Klucel (hydroxypropylcellulose) (HPC) 107 % of control | endpoint: mean survival time, dose: 2.0 mg/kg/injection, schedule: Q01DX009 (ip), vehicle: saline with Tween-80 119 % of control | endpoint: mean survival time, dose: 2.0 mg/kg/injection, schedule: Q02DX005 (ip), vehicle: saline 115 % of control | endpoint: mean survival time, dose: 2.5 mg/kg/injection, schedule: Q01DX005 (ip), vehicle: distilled water + Tween-80 93 % of control | endpoint: mean survival time, dose: 2.5 mg/kg/injection, schedule: Q01DX005 (ip), vehicle: water 100 % of control | endpoint: mean survival time, dose: 4.0 mg/kg/injection, schedule: Q01DX009 (ip), vehicle: Klucel (hydroxypropylcellulose) (HPC) 109 % of control | endpoint: mean survival time, dose: 4.0 mg/kg/injection, schedule: Q02DX005 (ip), vehicle: saline 107 % of control | endpoint: mean survival time, dose: 4.0 mg/kg/injection, schedule: Q03DX002 (ip), vehicle: saline with Tween-80 108 % of control | endpoint: mean survival time, dose: 5.0 mg/kg/injection, schedule: Q01DX005 (ip), vehicle: distilled water + Tween-80 98 % of control | endpoint: mean survival time, dose: 5.0 mg/kg/injection, schedule: Q01DX005 (ip), vehicle: water 100 % of control | endpoint: mean survival time, dose: 5.0 mg/kg/injection, schedule: Q02DX005 (ip), vehicle: saline 87 % of control | endpoint: mean survival time, dose: 5.0 mg/kg/injection, schedule: Q## X005 (ip), vehicle: saline 117 % of control | endpoint: mean survival time, dose: 6.0 mg/kg/injection, schedule: Q03DX002 (ip), vehicle: saline with Tween-80 103 % of control | endpoint: mean survival time, dose: 8.0 mg/kg/injection, schedule: Q03DX002 (ip), vehicle: saline with Tween-80 93 % of control | endpoint: mean survival time, dose: 10.0 mg/kg/injection, schedule: Q01DX005 (ip), vehicle: distilled water + Tween-80 102 % of control | endpoint: mean survival time, dose: 10.0 mg/kg/injection, schedule: Q01DX005 (ip), vehicle: water 98 % of control | endpoint: mean survival time, dose: 10.0 mg/kg/injection, schedule: Q03DX002 (ip), vehicle: saline with Tween-80 110 % of control | endpoint: mean survival time, dose: 10.0 mg/kg/injection, schedule: Q## X005 (ip), vehicle: saline 102 % of control | endpoint: mean survival time, dose: 12.0 mg/kg/injection, schedule: Q03DX002 (ip), vehicle: saline with Tween-80 117 % of control | endpoint: mean survival time, dose: 16.0 mg/kg/injection, schedule: Q01DX009 (ip), vehicle: Klucel (hydroxypropylcellulose) (HPC) 111 % of control | endpoint: mean survival time, dose: 20.0 mg/kg/injection, schedule: Q01DX005 (ip), vehicle: distilled water + Tween-80 100 % of control | endpoint: mean survival time, dose: 20.0 mg/kg/injection, schedule: Q01DX005 (ip), vehicle: water 98 % of control | endpoint: mean survival time, dose: 20.0 mg/kg/injection, schedule: Q04DX002 (ip), vehicle: saline 97 % of control | endpoint: mean survival time, dose: 20.0 mg/kg/injection, schedule: Q## X005 (ip), vehicle: saline 88 % of control | endpoint: mean survival time, dose: 30.0 mg/kg/injection, schedule: Q04DX002 (ip), vehicle: saline 107 % of control | endpoint: mean survival time, dose: 40.0 mg/kg/injection, schedule: Q04DX002 (ip), vehicle: saline 118 % of control and 103 % of control | endpoint: mean survival time, dose: 50.0 mg/kg/injection, schedule: Q04DX002 (ip), vehicle: saline 100 % of control | endpoint: mean survival time, dose: 60.0 mg/kg/injection, schedule: Q04DX002 (ip), vehicle: saline 108 % of control | endpoint: mean survival time, dose: 75.0 mg/kg/injection, schedule: Q04DX003 (ip), vehicle: saline 118 % of control | endpoint: median survival time, dose: 0.62 mg/kg/injection, schedule: Q01DX009 (ip), vehicle: saline 96 % of control | endpoint: median survival time, dose: 1.25 mg/kg/injection, schedule: Q01DX009 (ip), vehicle: saline 97 % of control | endpoint: median survival time, dose: 5.0 mg/kg/injection, schedule: Q01DX009 (ip), vehicle: saline 111 % of control | endpoint: median survival time, dose: 10.0 mg/kg/injection, schedule: Q01DX009 (ip), vehicle: saline 113 % of control | endpoint: median survival time, dose: 20.0 mg/kg/injection, schedule: Q01DX009 (ip), vehicle: saline 97 % of control

COC1OC2COC(c3ccccc3)OC2C(OS(C)(=O)=O)C1OS(C)(=O)=O (centres undefined)
inactive: [1] 103 % of control | [2] 105 % of control | [3] 101 % of control

O=C(N/N=C/c1ccc([N+](=O)[O-])cc1[N+](=O)[O-])c1ccncc1
inactive: endpoint: mean survival time, dose: 12.5 mg/kg/injection, schedule: Q01DX009 (ip), vehicle: other 95 % of control | endpoint: mean survival time, dose: 25.0 mg/kg/injection, schedule: Q01DX009 (ip), vehicle: other 91 % of control | endpoint: mean survival time, dose: 50.0 mg/kg/injection, schedule: Q01DX009 (ip), vehicle: other 91 % of control | endpoint: mean survival time, dose: 100.0 mg/kg/injection, schedule: Q01DX009 (ip), vehicle: other 89 % of control | endpoint: mean survival time, dose: 200.0 mg/kg/injection, schedule: Q01DX009 (ip), vehicle: other 93 % of control

OCCc1cc[nH]c1
inactive: endpoint: mean survival time, dose: 100.0 mg/kg/injection, schedule: Q01DX009 (ip), vehicle: saline with Tween-80 104 % of control | [4] 95 % of control | endpoint: mean survival time, dose: 200.0 mg/kg/injection, schedule: Q01DX009 (ip), vehicle: saline with Tween-80 101 % of control | [5] 97 % of control | endpoint: mean survival time, dose: 400.0 mg/kg/injection, schedule: Q01DX009 (ip), vehicle: saline with Tween-80 113 % of control | endpoint: mean survival time, dose: 400.0 mg/kg/injection, schedule: Q04DX003 (ip), vehicle: saline with Tween-80 97 % of control

CN(C=O)c1cc2c3c(c1)CCCN3CCC2
inactive: endpoint: mean survival time, dose: 50.0 mg/kg/injection, schedule: Q01DX009 (ip), vehicle: saline with Tween-80 100 % of control | [1] 105 % of control | [2] 104 % of control

O=C1C2CC=CCC2C(=O)C2CC=CCC12 (centres undefined)
inactive: [1] 92 % of control | [2] 92 % of control | [3] 101 % of control

CC1(C)CC(=O)C=C(NCc2ccccc2)C1
inactive: [4] 93 % of control | [5] 91 % of control

CC1=C2C(=CC(C)(CO)C2O)C(O)C(C)(O)C12CC2 (centres undefined)
inactive: endpoint: mean survival time, dose: 1.56 mg/kg/injection, schedule: Q01DX005 (ip), vehicle: water 94 % of control | endpoint: mean survival time, dose: 3.13 mg/kg/injection, schedule: Q01DX005 (ip), vehicle: water 87 % of control | endpoint: mean survival time, dose: 6.25 mg/kg/injection, schedule: Q01DX005 (ip), vehicle: water 89 % of control | endpoint: mean survival time, dose: 12.5 mg/kg/injection, schedule: Q01DX005 (ip), vehicle: water 94 % of control | endpoint: mean survival time, dose: 25.0 mg/kg/injection, schedule: Q01DX005 (ip), vehicle: water 100 % of control

O=[N+]([O-])c1ccc2c(N=Nc3c(O)ccc4ccccc34)c(O)cc(S(=O)(=O)O)c2c1
inactive: endpoint: mean survival time, dose: 50.0 mg/kg/injection, schedule: Q01DX009 (ip), vehicle: saline 119 % of control | endpoint: mean survival time, dose: 100.0 mg/kg/injection, schedule: Q01DX009 (ip), vehicle: saline 100 % of control | endpoint: mean survival time, dose: 200.0 mg/kg/injection, schedule: Q01DX009 (ip), vehicle: saline 109 % of control

CC1(C)C2(C)CC12C (centres undefined)
inactive: endpoint: mean survival time, dose: 1.25 mg/kg/injection, schedule: Q04DX002 (ip), vehicle: saline with Tween-80 97 % of control | endpoint: mean survival time, dose: 2.5 mg/kg/injection, schedule: Q04DX002 (ip), vehicle: saline with Tween-80 97 % of control | endpoint: mean survival time, dose: 5.0 mg/kg/injection, schedule: Q04DX002 (ip), vehicle: saline with Tween-80 97 % of control | endpoint: mean survival time, dose: 10.0 mg/kg/injection, schedule: Q04DX002 (ip), vehicle: saline with Tween-80 97 % of control
